Data as given in paper PMC3997483, “Aminostyrylbenzofuran Directly Reduces Oligomeric Amyloid-β and Reverses Cognitive Deficits in Alzheimer Transgenic Mice” (PLoS ONE, 2014).

Tests used:
[1] = Metabolic stability in liver microsomes; format: in vitro ADME, human
[2] = Metabolic stability in liver microsomes; format: in vitro ADME; settings: rat liver microsomes
[3] = Plasma stability; format: in vitro ADME; settings: 37 °C
Method: Plasma stability studies Plasma stability of the KMS88009 was studied in human, dog, rat and mouse plasma. Each plasma from different species was diluted to 5-fold with 0.05 M phosphate buffered saline (PBS, pH 7.4 at 37 °C). We added KMS88009 to 1 mL of preheated plasma solution to yield a final concentration of 1 μM. The assay was performed in a shaking water bath at 37 °C and conducted in triplicate. Samples (50 μL) were taken at 0, 0.5, 1, 2 and 6 hr and added to 10 μL of 0.05% formic acid. The samples were subjected to vortex mixing for 1 min and centrifuged at 4 °C for 20 min at 14,000 rpm. The clear supernatants were analyzed by liquid chromatography/mass/mass spectrometry (LC-MS/MS). Values are expressed as the mean ± SD of 2 independent experiments. Stability is expressed as the percentage of remaining compound in % relative to the start concentration set to 100%.

[4] = Stability in PBS buffer (plasma stability study); format: in vitro ADME; settings: 37 °C
[5] = system: APP/PS1 TG mice; experiment: Morris water maze, prophylactic trial; format: in vivo, mouse; settings: for swimming time % within the target quadrant (probe trial): APP/PS1 TG mice, vehicle TG 23.4%, WT 44.3%; for Latency (hidden platform): TG mice
Method: Behavioral tests were performed in the following sequence: Y-maze (day 1), Morris water maze (day 4 to 12) and contextual fear conditioning (day 26 to 27). To reduce stress, contextual fear conditioning was carried out 2 weeks after the Morris water maze task. In the therapeutic trial, APP/PS1 TG mice were treated with KMS88009 (30 mg/kg/day) for 3 months from 9 to 12 months of age. Y-maze tests short-term spatial working memory. Y-maze is a 3-armed (40 L×10 W×12 H cm) horizontal maze in which the arms are symmetrically disposed at 120° angles from each other. Mice were placed at the end of one arm and allowed to move freely through the maze during a 5-min session. Arm entry was considered completed when the hind paws of the mouse were completely placed in the arm. Alternation was defined as successive entries into the 3 arms on overlapping triplet sets. The series of arm entries was recorded via video recorders. The percentage of alternation was defined according to the following equation: % alternation = [(number of alternations)/(total arm entries - 2)] ×100. Mice performing fewer than 7 alternations in 5 min were excluded from the subsequent analysis to accurately determine alternation scores. Morris water maze was used to measure spatial learning and memory. A stainless pool apparatus with a diameter of 120 cm was used. A clear escape platform (circle, 12×12 cm) was located 1.0 cm below (hidden) the water surface containing white nontoxic paint. The temperature of water was kept constant throughout the experiment (21±1°C). The visual cues, for mice to recognize the environment and direction, are placed on the walls around the pool. The training was consisted of 8 consecutive days of testing with 4 trials per day. When a mouse was located on the escape platform, it was permitted to remain on the platform for 15 sec. […] Then the subject was returned to its home cage and allowed to dry up after each trial. The platform location was kept constant and the starting position was varied. Each mouse was placed in the water with their nose pointing toward the wall at one of the starting points in a random manner. During each trial session, the time taken to find the hidden platform (latency) was recorded using a video camera-based Ethovision System (Nodulus, Nertherlands). On the 9th day, each mouse was tested on a probe trial. The platform was removed from pool and the mice were allowed to swim for 60 sec to search. Swimming time was recorded during mice were in the pool quadrant where the platform had been previously located. Mice, which float or jump from platform, were eliminated from the experiment since these responses may be incompatible with the behaviors needed to locate and learn the platform position. In addition, animals with difficulty in swimming were also excluded from this study. Fear conditioning task was measured to test the ability to learn and remember an association between an aversive experience and environmental cues. Contextual fear conditioning evaluation was performed using a fear-conditioning chamber (Courlbourn, USA) equipped with a computer-controlled fear conditioning system (FreActimetrics, USA). On the first day of training, each mouse was placed in the conditioning chamber and left to adjust for 2 min. Fear conditioning test was performed with conditional stimulus (CS) of sound (75 dB) for 20 sec followed by unconditional stimulus (US) of electric foot-shock (0.5 mA) for the last 2 sec in CS. After 1 min, the subject was returned to its home cage. After 24 hr, retention test was performed. […] Freezing response was measured without CS or US. Freezing behavior was defined as the complete absence of any movement except for respiration and heartbeat. Animals with no response to the foot-shock during training were excluded from the analysis. Data analyses including recordings of all behavioral responses were performed by keeping research colleagues blind.

[6] = system: Aβ40 and Aβ42; experiment: Aβ40/Aβ42 sandwich ELISA of brain tissue, prophylactic trial; format: in vivo, mouse
Method: Mice subjected to behavior tests were sacrificed and levels of Aβ in their brains were analyzed. After removing olfactory lobe and cerebellum of brain, hippocampus and cerebral cortex were separated. The separated regions were Dounce-homogenized first in 10-fold mass of a lysis buffer (RIPA, 150 mM NaCl, 1% NP-40, 0.5% deoxycholic acid, 0.1% SDS and 50 mM tris, pH 8.0) or tris buffer (50 mM tris and pH 8.0) containing protease inhibitor cocktail (Pierce, USA) for prophylactic or therapeutic treatment groups, respectively. […] The supernatant (soluble Aβ fraction) was collected and stored at −70°C until analyzed. The resulting pellet was solubilized in 20-fold mass of cold guanidine solution (5 M guanidine HCl, 50 mM tris HCl and pH 8.0) at room temperature for 4 hr followed by dilution with cold Dulbecco's phosphate buffered saline (PBS) with 5% BSA and 0.03% tween-20. […] The tissue concentrations of Aβ40 and Aβ42 in the soluble and insoluble fraction were measured using Aβ-detecting sandwich enzyme-linked immunosorbent assay (ELISA) kit (BioSource, USA). The levels of soluble Aβ oligomers were measured by a dot-blot immunoassay with an anti-oligomer antibody and an anti-Aβ antibody on soluble fraction of hippocampus homogenates. The homogenate sample (3 µL) was spotted onto nitrocellulose membrane (Whatman, UK). After blocking with 5% BSA in tris-buffered saline (TBS) for 1 hr at room temperature, the membrane was incubated with rabbit anti-oligomer polyclonal antibody (A11; 1∶1,000; Millipore, USA) overnight at 4°C, followed by incubation with HRP-secondary anti-rabbit antibody (1∶5,000; Millipore, USA) for 1 hr at room temperature. Blots were developed using ECL reagents (PerkinElmer, USA). Blots were re-identified after oligomeric antibody was stripped and re-probing with the anti-Aβ antibody 6E10 (1∶1,000; Signet, UK). The density of dots was analyzed with Multi Gauge program (Fuji Film, Japan) and the data was normalized to the average density of the TG control group. […] Membrane was incubated in a 5% solution of non-fat dry milk for 1 hr at room temperature. […]

[7] = in vitro; settings: monkey, liver microsomes
[8] = cortex, 10-100 mg/kg/day groups

SMILES: COc1ccc2cc(C=Cc3ccc(N(C)C)cc3)oc2c1 [KMS88009, 6-methoxy-2-(4-dimethylaminostyryl) benzofuran]
- Metabolic stability ([1]; human liver microsomes 1 mg/mL, 5 µM, symbol): √ (Mean percent value is confirmed over 90% at 60 min.)
- remaining at 1 h, 5 µM ([1]; human liver microsomes, read-out: Remaining % of parent molecule at 60 min.): 92.7 ± 0.4%
- half-life at 5 µM [2]: 58.4 ± 0.4 min
- remaining at 1 h, 5 µM ([2]; read-out: Remaining % of parent molecule at 60 min.): 61.2 ± 0.2%
- Parent compound remaining ([3]; dog plasma, 0.5 hr): 100.0%
- Parent compound remaining ([3]; dog plasma, 1 hr): 100.0%
- Parent compound remaining ([3]; dog plasma, 2 hr): 100.0%
- Parent compound remaining ([3]; dog plasma, 6 hr): 100.0%
- Parent compound remaining ([3]; human plasma, 0.5 hr): 100.0%
- Parent compound remaining ([3]; human plasma, 1 hr): 100.0%
- Parent compound remaining ([3]; human plasma, 2 hr): 82.0%
- Parent compound remaining ([3]; human plasma, 6 hr): 100.0%
- Parent compound remaining ([3]; mouse plasma, 0.5 hr): 100.0%
- Parent compound remaining ([3]; mouse plasma, 1 hr): 100.0%
- Parent compound remaining ([3]; mouse plasma, 2 hr): 100.0%
- Parent compound remaining ([3]; mouse plasma, 6 hr): 100.0%
- Parent compound remaining ([3]; rat plasma, 0.5 hr): 86.9%
- Parent compound remaining ([3]; rat plasma, 1 hr): 93.7%
- Parent compound remaining ([3]; rat plasma, 2 hr): 100.0%
- Parent compound remaining ([3]; rat plasma, 6 hr): 100.0%
- Parent compound remaining ([4]; 0.5 hr): 99.1%
- Parent compound remaining ([4]; 1 hr): 88.6%
- Parent compound remaining ([4]; 2 hr): 100.0%
- Parent compound remaining ([4]; 6 hr): 100.0%
- swimming time % within the target quadrant (probe trial) ([5]; PO 10 mg/kg/day): 40.4%
- swimming time % within the target quadrant (probe trial) ([5]; PO 30 mg/kg/day): 39.7%
- swimming time % within the target quadrant (probe trial) ([5]; PO 100 mg/kg/day): 37.6%
- Latency (hidden platform) ([5]; Day 1, dose group + (10 mg/kg/day)): 50.5 ± 2.1 s
- Latency (hidden platform) ([5]; Day 1, dose group ++ (30 mg/kg/day)): 49.2 ± 2.4 s
- Latency (hidden platform) ([5]; Day 1, dose group +++ (100 mg/kg/day)): 48.3 ± 3.0 s
- Latency (hidden platform) ([5]; Day 2, dose group + (10 mg/kg/day)): 39.8 ± 2.7 s
- Latency (hidden platform) ([5]; Day 2, dose group ++ (30 mg/kg/day)): 38.3 ± 3.0 s
- Latency (hidden platform) ([5]; Day 2, dose group +++ (100 mg/kg/day)): 37.6 ± 5.2 s
- Latency (hidden platform) ([5]; Day 3, dose group + (10 mg/kg/day)): 31.1 ± 2.5 s
- Latency (hidden platform) ([5]; Day 3, dose group ++ (30 mg/kg/day)): 30.6 ± 3.3 s
- Latency (hidden platform) ([5]; Day 3, dose group +++ (100 mg/kg/day)): 34.3 ± 4.3 s
- Latency (hidden platform) ([5]; Day 4, dose group + (10 mg/kg/day)): 35.1 ± 2.8 s
- Latency (hidden platform) ([5]; Day 4, dose group ++ (30 mg/kg/day)): 32.9 ± 3.0 s
- Latency (hidden platform) ([5]; Day 4, dose group +++ (100 mg/kg/day)): 32.0 ± 4.0 s
- Latency (hidden platform) ([5]; Day 5, dose group + (10 mg/kg/day)): 41.8 ± 3.2 s
- Latency (hidden platform) ([5]; Day 5, dose group ++ (30 mg/kg/day)): 36.3 ± 4.2 s
- Latency (hidden platform) ([5]; Day 5, dose group +++ (100 mg/kg/day)): 29.6 ± 4.1 s
- Latency (hidden platform) ([5]; Day 6, dose group + (10 mg/kg/day)): 32.9 ± 1.9 s
- Latency (hidden platform) ([5]; Day 6, dose group ++ (30 mg/kg/day)): 29.3 ± 3.9 s
- Latency (hidden platform) ([5]; Day 6, dose group +++ (100 mg/kg/day)): 33.4 ± 4.8 s
- Latency (hidden platform) ([5]; Day 7, dose group + (10 mg/kg/day)): 31.7 ± 2.6 s
- Latency (hidden platform) ([5]; Day 7, dose group ++ (30 mg/kg/day)): 28.6 ± 3.5 s
- Latency (hidden platform) ([5]; Day 7, dose group +++ (100 mg/kg/day)): 30.0 ± 2.6 s
- Latency (hidden platform) ([5]; Day 8, dose group + (10 mg/kg/day)): 26.6 ± 3.0 s
- Latency (hidden platform) ([5]; Day 8, dose group ++ (30 mg/kg/day)): 25.6 ± 3.0 s
- Latency (hidden platform) ([5]; Day 8, dose group +++ (100 mg/kg/day)): 27.9 ± 4.6 s
- reduction of soluble Aβ40 level vs TG group [6, 8]: 44∼60%
- reduction of soluble Aβ42 level vs vehicle-treated TG mice [6, 8]: 59∼66%
- reduction of soluble Aβ40 level vs TG group ([6]; hippocampus, except the 10 mg/kg/day group): 34∼36%
- half-life at 5 µM [7]: 35.2 ± 0.6 min
- remaining at 1 h, 5 µM [7]: 30.9 ± 0.2%
